# Test results reported in paper PMC6934184, “Selective DNA-PKcs inhibition extends the therapeutic index of localized radiotherapy and chemotherapy” (The Journal of Clinical Investigation, 2019).
# Target: T1, MAP4K4 (HGK) (Homo sapiens, UniProt O95819)
# T1 construct: purchased Thermo Fisher Scientific (Life Technologies) SelectScreen
# Experiment: SelectScreen Z'LYTE
# Type: biochemical
# In short: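 Percent values come from Thermo SelectScreen profiling of NU5455, combining activity and binding assays. CSF1R was run in Z'LYTE format at Km app ATP, and CAMK1 in Adapta format with ATP listed at 10.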
# T1 sequence (O95819 whole entry): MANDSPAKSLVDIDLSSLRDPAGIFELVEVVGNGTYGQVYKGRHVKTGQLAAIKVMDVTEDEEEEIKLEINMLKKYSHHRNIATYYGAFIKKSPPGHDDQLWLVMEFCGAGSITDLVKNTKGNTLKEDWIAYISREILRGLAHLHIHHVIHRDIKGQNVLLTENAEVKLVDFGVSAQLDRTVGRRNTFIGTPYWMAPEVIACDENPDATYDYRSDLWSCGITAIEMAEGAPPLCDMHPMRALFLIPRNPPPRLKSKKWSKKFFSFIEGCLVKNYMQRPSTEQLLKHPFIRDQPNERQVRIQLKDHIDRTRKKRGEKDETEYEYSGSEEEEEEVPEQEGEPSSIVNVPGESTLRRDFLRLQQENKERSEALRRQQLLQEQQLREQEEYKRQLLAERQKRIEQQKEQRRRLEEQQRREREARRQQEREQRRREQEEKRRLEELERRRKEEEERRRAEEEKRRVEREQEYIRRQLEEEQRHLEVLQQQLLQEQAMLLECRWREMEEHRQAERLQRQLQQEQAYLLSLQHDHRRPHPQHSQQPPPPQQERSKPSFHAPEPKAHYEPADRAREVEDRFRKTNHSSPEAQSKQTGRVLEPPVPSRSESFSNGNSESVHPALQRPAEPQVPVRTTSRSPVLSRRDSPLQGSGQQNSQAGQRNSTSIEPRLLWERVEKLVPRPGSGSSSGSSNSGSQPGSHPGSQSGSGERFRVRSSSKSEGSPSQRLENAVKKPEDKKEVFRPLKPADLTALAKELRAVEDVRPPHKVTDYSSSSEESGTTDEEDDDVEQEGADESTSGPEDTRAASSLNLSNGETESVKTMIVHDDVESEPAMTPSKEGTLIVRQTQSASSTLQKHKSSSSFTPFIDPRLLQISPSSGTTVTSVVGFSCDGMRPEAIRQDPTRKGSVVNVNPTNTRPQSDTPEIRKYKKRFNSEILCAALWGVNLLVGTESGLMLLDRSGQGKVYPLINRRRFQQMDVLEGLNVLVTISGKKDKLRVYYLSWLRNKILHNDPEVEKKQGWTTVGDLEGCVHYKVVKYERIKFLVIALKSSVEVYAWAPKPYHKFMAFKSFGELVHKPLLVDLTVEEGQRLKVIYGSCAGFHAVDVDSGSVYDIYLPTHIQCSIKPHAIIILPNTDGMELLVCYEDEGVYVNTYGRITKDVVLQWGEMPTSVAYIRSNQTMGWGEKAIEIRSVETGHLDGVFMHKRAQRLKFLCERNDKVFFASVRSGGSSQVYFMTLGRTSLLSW
smiles,measurement,value
CN(C(=O)CN1CCOCC1)c1ccc2sc3c(-c4cccc5c(=O)cc(N6CC7CCC(C6)O7)oc45)cccc3c2c1 [NU5455],inhibition at 1 µM,-5.6%
